From patent publication US5959145A, “Fatty acid analog enzyme substrates” (priority 1993, dated 1999) come the findings set out here.

The target of one data set is T1, yeast NMT (Saccharomyces cerevisiae, UniProt P14743).
T1 construct: 11,000-fold purified preparation of yeast NMT; endogenous in cells; host or cells: yeast (enzyme purified from yeast, 11,000-fold)
T1 sequence (P14743 1-455): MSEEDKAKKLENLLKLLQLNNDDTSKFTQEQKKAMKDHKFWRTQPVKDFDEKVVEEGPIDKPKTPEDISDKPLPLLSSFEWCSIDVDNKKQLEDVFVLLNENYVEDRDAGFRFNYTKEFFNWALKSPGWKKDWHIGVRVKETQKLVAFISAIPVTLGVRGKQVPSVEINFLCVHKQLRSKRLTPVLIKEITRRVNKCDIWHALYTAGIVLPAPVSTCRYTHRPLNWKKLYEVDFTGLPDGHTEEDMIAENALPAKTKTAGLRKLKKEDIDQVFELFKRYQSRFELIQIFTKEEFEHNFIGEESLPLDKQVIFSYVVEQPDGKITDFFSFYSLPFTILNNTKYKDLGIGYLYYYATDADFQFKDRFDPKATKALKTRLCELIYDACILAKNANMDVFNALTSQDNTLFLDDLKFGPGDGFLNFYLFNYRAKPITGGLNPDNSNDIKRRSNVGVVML
The data set is described as follows: kinetic characterisation of fatty acid analogs as yeast NMT substrates. Format: biochemical. The text has this:
Similar results were obtained using an 11,000-fold purified preparation of yeast NMT [Towler et al., Proc. Natl. Acad. Sci. USA 84, 2708-2712 (1987)].
Other illustrative examples of the oxy- and thio-substituted fatty acid analog substrate compounds of the invention were synthesized in Examples 6 to 14 and tested in Example 15 as substrates for the yeast NMT.
(§1) For these Examples, each analog synthesized is characterized by ^1 H and ^13 C NMR as well as mass spectroscopy. The analogs are then characterized kinetically as NMT substrates. Briefly, fatty acid analogs are converted to their CoA esters with Pseudomonas CoA ligase and incubated with the iodinated peptide GNAAS[^125 I]YRR and a source of NMT. […] The radiolabelled peptide is then used at concentrations which will lead to 50% enzyme saturation (i.e., at its Km) for the determination of fatty acid analog kinetic characteristics. Representative analogs with sulfur or oxygen in the backbone of the fatty acid chain serve as good substrates for NMT in vitro and will compete for incorporation of ^3 H labelled myri-state into yeast proteins in vivo. In addition, these analogs differ markedly in hydrophobicity from myri-state as measured both by C18 reverse phase HPLC elution profiles and by 2-octanol/water partition coefficients. The analog CH3 O(CH2)11 COOH, for example, partitions into water 20 fold better than myristate. It is believed that these analogs will be incorporated into mammalian acylproteins in vivo and that their incorporation into these proteins will drastically alter protein processing or targeting. It is further believed that the incorporation of fatty acid analogs of both myristate and palmitate into ester linked and phosphatidyl inositol glycan linked acylproteins will also dramatically alter their properties. Since many viral proteins and oncogenes are acylated, these compounds represent a new class of potential antiviral and antineoplastic agents.

The nature of data set [1]: C18 reverse phase HPLC elution of fatty acyl peptides (hydrophobicity). Format: physicochemical. Conditions: C18 reverse phase HPLC, acyl derivative of GNAAS[125I]YRR; Table 2. As for the experimental part:
The fatty acid analog acyl-peptide eluted 7 minutes earlier than the corresponding myristoyl peptide. The free peptide elutes in the void volume (3-5minutes).
This difference was evident when the HPLC elution characteristics of fatty acyl peptides were examined. The elution time of a particular acyl-peptide depends strongly on the peptide sequence as well as on the acyl chain attached to that peptide. For example, the elution times of fatty acyl derivatives of GNAAAARR are (in minutes) decanoic acid, 9; dodecanoic acid, 18; myristic acid, 24; and palmitic acid, 30. Elution times for fatty acyl derivatives of GNAAS[^125 I]YRR are 23 and 28 minutes for C12 and C14 fatty acids, respectively (FIG. 2). […] Such a change could alter the biological activity of myristoyl proteins.
as §1

A short description of data set [2]: 2-octanol/water partition. Format: physicochemical. The method, then:
as §1, with “It is further believed that the incorporation of fatty acid analogs of both myristate and palmitate into ester linked and phosphatidyl inositol glycan linked acylproteins will also dramatically alter their properties. Since many viral proteins and oncogenes are acylated, these compounds represent a new class of potential antiviral and antineoplastic agents.” left out

Data set [3] has as its system yeast myristoylprotein of Mr 20 kDa. Briefly: competition for [3H]myristate incorporation into yeast acylprotein in vivo. Format: cell-based. Conditions: Saccharomyces cerevisiae, 0.75 h; 100 μM unlabeled fatty acid or analog, 5 μM [3H]myristate, vs control cells; read-out: reduction in incorporation of [3H]myristate into yeast myristoylprotein of Mr 20 kDa. The method, then: (§2) Saccharomyces cerevisiae strain BJ405 [MATα, trpl, prbl, prcl, pep4-3; Hemmings et al., Proc. Natl. Acad. Sci. USA 78, 435-439 (1981)] (previously referred to as JR153) was grown to mid-log phase (OD660 nm =1.0-1.2) in YPD medium (1% yeast extract/2% Bactopeptone/2% Dextrose) at 30° C. in a rotary shaker water bath. Cells were pretreated with Cerulenin at 2 μg/ml for 15 minutes and then incubated for 20-45 minutes with unlabeled myristate, palmitate or fatty acid analog at 100 μM in the presence of either 5 μM [9,10-^3 H(N)]-myristate (22.4 Ci/mmol) or L-[^35 S]methionine (1106 Ci/mmol) at 30 μCi/ml of culture.
(§3) Cells were cooled on ice 5 minutes, pelleted at 10,000×g, then broken and extracted by the method of Towler et al., Proc. Natl. Acad. Sci. USA 83, 2812-2816 (1986). Total protein synthesis was assayed by trichloroacetic acid (TCA) precipitation. Proteins were separated by SDS-12% polyacrylamide gel electrophoresis, and [^3 H]fatty acid incorporation into cellular acyl-proteins was assayed by autoradiography followed by laser densitometry.

A short description of data set [4]: growth, toxicity and total protein synthesis in yeast cells. Format: cell-based. Conditions: s. cerevisiae bj405, vs control cells not exposed to exogenous fatty acid, read-out: reduction in total protein synthesis ([35S]methionine into TCA precipitable protein). The method, then: as §2, §3
In data set [5] the test system is Saccharomyces cerevisiae strain BJ405. Described as above. Format: cell-based. The method, then: as §2, §3

What is called Km is the concentration of substrate that gives half-maximal velocity.

For `COCCCCCCCCCCCC(=O)O` [E, 12-(Methoxy)dodecanoic acid], at yeast NMT (peptide GNAAS[125I]YRR varied, fatty acid analog at 15 μM, myristate control = 100%), the “Peptide Vm” value came out at 177%. Also, the “Acyl CoA Vm” value at yeast NMT (radiolabelled peptide at its Km, analog varied, myristate control = 100%) was ~ 110%. Further, on yeast NMT (radiolabelled peptide at its Km, analog varied, read-out: Acyl CoA Km), the Km is roughly 2 µM. Besides, in data set [1], the “Elution Time” value is 12 to 13 min. Moreover, the “partition into water relative to myristate” value in data set [2] is on record as 20 fold. Moreover, the results for the inhibition at 100 µM in data set [3] and in data set [4] were 35 to 60% and 10 to 15%, respectively. Also, in data set [5], the “difference in growth rates versus cells treated with 100 μM myristate” value is listed as “No difference”.
